# Assay results taken from patent US9144570B2, “Method to enhance delivery of glutathione and ATP levels in cells” (Max International LLC, priority 2004, dated 2015).
# “Also recorded” adds a separate entry of the source.
# Tests used:
# [1] = tested on: mice; conditions: cited from earlier work
# [2] = tested on: Rat hepatocytes; experiment: Inhibitory effect of BSO on GSH elevation elicited by L-cysteine prodrugs in rat hepatocytes; format: cell-based
# Method: (§1) Rat hepatocytes were isolated following the methods of P. O. Seglen, Exper. Cell Res., 74, 450 (1972). After final plating, the hepatocytes were maintained in culture for 24 hr prior to use. Only primary cultures were used throughout the studies. […] Total GSH content (GSH+GSSG) was determined by a modification of the DTNB [5,5′-dithiobis(2-nitrobenzoic acid)] glutathione reductase recycling method of F. Tietze, Anal. Biochem., 27, 502 (1969). The GSH concentration in the sample was quantified by determining the cycling rate (ΔOD at 412 nm/min) of the sample.
# [3] = tested on: Rat hepatocytes; experiment: Glutathione content of isolated rat hepatocytes after incubation with L-cysteine prodrugs; format: cell-based; conditions: for [GSH] Rel. to Controls. / [GSH] ± SE: 4-hr incubation, RibCys 1.0 mM, NAC 2.5 mM; for [GSH] ± SE: total GSH (GSH+GSSG)
# Method: as §1
# [4] = tested on: mice; conditions: RibCys; 1 g/kg in mice; cited from earlier work
# [5] = tested on: tumor-bearing CDF1 mice; conditions: 8 mmol/kg i.p., cited from earlier work
# [6] = tested on: mice; conditions: RibCys 8 mmol/kg; cited from earlier work
# [7] = tested on: human subjects; conditions: administered directly to human subjects, wide dosage ranges; cited from earlier work
# [8] = tested on: canine heart; conditions: cited from earlier work
# [9] = tested on: healthy human subjects; conditions: oral, 8-10 g per day, adult; cited from earlier work
# [10] = prodrug 1.0 mM, cells pre-exposed to BSO 0.2 mM
compound,measurement,setting,value
"CC1N[C@H](C(=O)O)CS1 (stereo partly drawn) [2(R,S)-methyl-thiazolidine-4R-carboxylate]",protection of mice from hepatotoxic dosages of acetaminophen,[1],protect mice from heptatotoxic dosages of acetaminophen
"CCCCCC1N[C@H](C(=O)O)CS1 (stereo partly drawn) [2(R,S)-n-pentyl-thiazolidine-4R-carboxylate]",protection of mice from hepatotoxic dosages of acetaminophen,[1],protect mice from heptatotoxic dosages of acetaminophen
"CCCC1N[C@H](C(=O)O)CS1 (stereo partly drawn) [2(R,S)-n-propyl-thiazolidine-4R-carboxylate]",protection of mice from hepatotoxic dosages of acetaminophen,[1],protect mice from heptatotoxic dosages of acetaminophen
"CCCCS(=N)(=O)CCC(N)C(=O)O (stereo not drawn) [BSO, Buthionine Sulfoximine]",[GSH] Rel. to Controls.,"[2]; BSO 0.2 mM alone, no prodrug",0.5
same,[GSH] ± SE,"[2]; BSO 0.2 mM alone, no prodrug",18.4 ± 2.08 nmol/10^6 cells
O=C1N[C@H](C(=O)O)CS1 [L-2-oxothiazolidine-4-carboxylate],protection of mice from hepatotoxic dosages of acetaminophen,[1],protect mice from heptatotoxic dosages of acetaminophen
"CC(=O)N[C@@H](CS)C(=O)O [N-Acetyl-L-cysteine (NAC), N-Acetyl-L-cysteine]",[GSH] Rel. to Controls.,[3],1.3
same,GSH levels raised by,"[3]; NAC, 2.5 times the concentration of the thiazolidine prodrugs",30%
same,[GSH] ± SE,[3],45.8 ± 1.27 nmol/10^6 cells
same,[GSH] Rel. to Controls.,[2]; [10],0.7
same,[GSH] ± SE,[2]; [10],25.5 ± 1.59 nmol/10^6 cells
same,protection of mice from hepatotoxic dosages of acetaminophen,[1],protect mice from heptatotoxic dosages of acetaminophen
"O=C(O)[C@@H]1CSC(C(O)C(O)C(O)CO)N1 (stereo partly drawn) [RibCys, 2(R,S)-D-ribo-1′,2′,3′,4′-Tetrahydroxybutylthiazolidine-4(R)-carboxylic Acid]",[GSH] Rel. to Controls.,[3],about 1.7
same,[GSH] Rel. to Controls.,[3]; listed as RibCys (Ia),1.7
same,[GSH] ± SE,[3],61.2 ± 1.52 nmol/10^6 cells
same,[GSH] Rel. to Controls.,[2]; [10],0.5
same,[GSH] ± SE,[2]; [10],16.2 ± 3.60 nmol/10^6 cells
same,protection against acetaminophen hepatic and renal toxicity,"[1]; RibCys, 2 g/kg in mice",effective to protect against acetaminophen-induced hepatic and renal toxicity; also recorded: protect mice against acetaminophen hepatic and renal toxicity
same,protection against radiation-induced bowel injury,[4],protect the large and small bowel against radiation injury; also recorded: protect mice against irradiation-induced bowel injury
same,GSH in the liver compared to untreated controls,[5]; 16-h time point,1.5 fold
same,GSH in bladder relative to controls,[5]; maximal GSH content,2.1 fold
same,GSH in muscle relative to control animals,[5]; maximal GSH content,2.5 times
same,Kidney GSH relative to control values,[5]; maximal at 16 h,1.6 times control values
same,GSH in implanted L1210 tumors relative to controls,[5],1.2 fold
same,protection of mice exposed to cyclophosphamide,[6],deliver effective protective amounts of cysteine to mice exposed to cyclophosphamide
O=C[C@H](O)[C@H](O)[C@H](O)CO [ribose],toxicity,[7],essentially non-toxic
same,decrease in the ATP recovery time,"[8]; 80 mM ribose in normal saline, about 1 ml/min for about 24.0 hours, about 550-700 mg/kg",eight-fold decrease
same,recovery of ATP levels in heart recovering from ischemia,[8]; intravenous perfusion,recovery of ATP levels is enhanced
same,ATP levels in dogs subjected to ischemia (heart attack model),[8]; ribose about 3 g/day for at least 5 days,effectively restored and maintained ATP levels
same,exercise capacity,[9],increase exercise capacity
